Measurements reported in US20230103237A1, “BIODEGRADABLE PARTICLES AND BIODEGRADABLE PARTICLES IN CONTACT WITH ACTIVE INGREDIENTS” (The United States of America, as represented by the …, priority 2021, published 2023).

Tested on: Culex quinquefasciatus mosquito larvae
Assay: whole plant or invertebrate
Assay type: in vivo
Text: FIG. 5 depicts a graph of the percentage of mosquito larvae death as a function of time for the different zein-silver particle solutions. This graph includes the results from five (5) trials with twenty (20) 3rd instar or 4th instar larvae. The Y axis presents the percentage death (Lethal %). The X axis presents the time after treatment in hours. Circles represent 100 ppm zein-silver particles; triangles represent 1 ppm zein-silver particles; diamonds represent 0.1 ppm zein-silver particles.
The larvicidal effect of the zein-silver particles prepared above was tested on Culex quinquefasciatus mosquito species.

| SMILES | mortality at 0.2 ppm (Culex quinquefasciatus, 40 h, read-out: Larval Mortality (%)) [%] | killing of larvae (0.2 ppm, after 90 hours) [%] |
| --- | --- | --- |
| OCC(O)CO [Glycerol, glycerol] | 0 | – |
| [BH4-].[Na+] [sodium borohydride] | – | 8 |
